# In paper PMC5372569, “A New Oleanolic Acid Derivative against CCl4-Induced Hepatic Fibrosis in Rats” (International Journal of Molecular Sciences, 2017):
# Values joined by “and” are separate entries in the source; they are usually repeats but may differ in a detail not shown here. Equal entries are not always repeated.
# What was measured:
# [1] = tested on: CCl4-induced liver fibrosis in rats; assay: Histological assessment (H&E) of livers in CCl4-induced liver fibrosis; format: in vivo; conditions: nine weeks
# Method: (§1) After a two-week acclimation period, 52 rats were randomly divided into five groups (each group approximately consisted of ten rats). (1) Normal group: rats were fed with regular diet and distilled water and were injected intraperitoneally with olive oil (2 mL/kg body weight per day, i.p. twice per week) for nine weeks; (2) Model group: rats were feeding with the same quantity as the normal group and were injected with 40% CCl4/olive oil (2 mL/kg body weight, twice per week) for nine weeks to induce liver fibrosis; (3) Low-dose group: rats were fed with the same quantity as the normal group and were administered intraperitoneal injections with 40% CCl4/olive oil (2 mL/kg body weight, twice per week) and with a low dose (14 mg/kg body weight, once per day) Oxy-Di-OA treatment for nine weeks; (4) High-dose group: rats were fed with the same quantity as the normal group and were treated with 40% CCl4/olive oil (2 mL/kg body weight twice per week) and with a high dose (28 mg/kg body weight, once per day) Oxy-Di-OA treatment for nine weeks; (5) Positive control group: rats were fed with the same quantity as the normal group and were administered 40% CCl4/olive oil (2 mL/kg body weight, twice per week) and with bifendate (10.5 mg/kg body weight, once per day) for nine weeks.
# (§2) At 48 h after the final injection of CCl4, all rats were anaesthetized with chloral hydrate, and the blood samples were collected from the aorta abdominalis. The serum samples were obtained by centrifugation at 3000 rpm for 15 min to obtain the supernatant and were kept frozen at −80 °C until biochemical analysis. Livers and spleens were immediately removed, rinsed in ice-cold saline, and weighed. The data were used for calculating liver and spleen indices. Then a portion of each liver was fixed in 4% buffered formaldehyde, embedded in paraffin blocks, and stained with hematoxylin-eosin (H&E) for histological and biochemical analyses. The rest of the tissues were stored at −80 °C until required.
# [2] = tested on: CCl4-induced liver fibrosis in rats; assay: Liver and spleen indices in CCl4-induced liver fibrosis; format: in vivo; conditions: mean ± SD
# Method: as §1, §2
# We used the percentage of the body weight to represent relative weights of the liver and spleen, respectively. The indices of liver and spleen were expressed as Wl/Wm and Ws/Wm, respectively. The Wl and Ws represented the average liver and spleen weight of each group, respectively, and Wm was the average rat body weight of each group.
# [3] = tested on: CCl4-induced liver fibrosis in rats; assay: Serum ALT and AST in CCl4-induced liver fibrosis; format: in vivo; conditions: mean ± SD
# Method: as §1, §2
# According to the corresponding manufacturer’s protocols, plasma samples were prepared after finishing animal experiments and determined using ALT and AST diagnostic kits. The ALT and AST enzyme activities were measured by the third affiliated hospital of Beijing University of Chinese Medicine (Beijing, China).
# [4] = tested on: TGF-β1; assay: Immunohistochemical staining of TGF-β1 in liver tissue, CCl4-induced liver fibrosis; format: in vivo; conditions: nine weeks, CCl4 rats
# Method: as §1
# Immunostaining was conducted as paraffin-embedded liver tissue sections of 5 µm thickness to determine the expression and distribution of TGF-β1 in the liver tissue of rats. Tissues were treated with 3% H2O2 in distilled water for 10 min to block endogenous peroxidase activity followed by another wash, and then blocked with 5% BSA blocking buffer for 20 min. Then, after endogenous peroxidase blockage, the sections were incubated with TGF-β1 primary antibody (1:50 dilution) at 4 °C overnight. The next day, they were washed three times with PBS (phosphate-buffered saline) and then incubated with HRP-labelled goat-anti-rabbit secondary antibodies at 37 °C for 30 min. […] The expression of TGF-β1 in liver tissues was analyzed under a light microscope (Olympus, Tokyo, Japan).
# [5] = Acute toxicity assay via gavage; conditions: male, Kunming, mouse, in vivo; mice, gavage (oral administration), doses up to 2000 mg/kg
# Method: (§3) According to previous studies, Oxy-Di-OA was further investigated for its approximate LD50 and 95% confidence interval (CIs) value in mice. Male Kunming mice, weighing 20 ± 2 g were randomly divided into eleven groups of six individuals matched by weight and size. The mice had fasted for 12 h, but water was allowed ad libitum before the acute toxicity experiments.
# One group of mice was orally administered bean oil as a normal control. Then the other four groups of mice were given gavage of Oxy-Di-OA in doses of 200, 500, 1000, and 2000 mg/kg, respectively. The mice were observed continuously for 1 h after such treatment and then intermittently for 4 h, and thereafter over a period of 24 h. The mice were further observed for up to seven days following treatment for any signs of toxicity, death, and the latency of death. Abnormal symptoms were recorded immediately.
# The acute toxicity test via gavage was evaluated by LD50.
# [6] = Pharmacokinetic study after single-dose oral administration (HPLC-UV); format: in vivo, SD rats; conditions: rats
# Method: The LC system is made up of an Agilent 1100 HPLC system (Agilent Corporation, USA) coupled with a reverse-phase Agilent TC-C18 analytical column (4.6 mm × 250 mm, 5 µm particle size). The column temperature set at 25 °C. The column used during the pharmacokinetic assay was eluted at a flow rate of 1 mL/min, and the solvent consisted of 98% methanol and 2% aqueous solution. The detection wavelength was 278 nm and the injection volume was 10 μL. Healthy SD rats had no access to food until 12 h after dose administration, while water was free to access throughout the experiments. To determine the drug concentrations and to calculate the pharmacokinetic parameters, blood was obtained from the ophthalmic vein and collected with heparinized microcentrifuge tubes. The plasma was separated by centrifuging the blood samples at 4000 rpm for 15 min. Plasma stored in a freezer at −20 °C was thawed at 4 °C before treatment. After that, 15 μL of IS (50.4 μg/mL) working solution was added to such a plasma sample (200 μL), followed by vortex-mixing for 1 min to obtain the mixture. Then we added 600 μL acetonitrile to the mixture and vortexed for 5 min. After that, the mixture was centrifuged at 12,000 rpm for 5 min at 4 °C. […] The residue was then reconstituted in 100 μL methanol, and stirred and vortexed for 1 min. The solution was centrifuged at 12,000 rpm for 5 min to obtain the supernatant. Finally, 10 μL of supernatant was injected into the HPLC system for further analysis. Oxy-Di-OA was dissolved in normal saline before using. Before administration of drug, six SD rats had no access to food overnight but water was allowed free access. A single dose (500 mg/kg) of Oxy-Di-OA solution was administered orally to rats. After that, the blood samples were collected with heparinized microcentrifuge tubes at 1, 2, 6, 8, 10, 12, 14, 16 and 20 h. Plasma was separated by centrifugation (4000 rpm, 10 min, and 15 °C) and kept at −20 °C until necessary.
# [7] = Stability of Oxy-Di-OA in rat plasma and processed samples; format: physicochemical
# Method: The stability of Oxy-Di-OA was investigated by analyzing the QC samples over three levels under different conditions, including −20 °C for 10 and 20 days (long-term stability), and room temperature for one day (short-term stability). In addition, the concentration of Oxy-Di-OA would be detected in the above samples to compare with the initial value in order to determine whether it has changed or not.
# [8] = tested on: mice; assay: Acute toxicity assay via intraperitoneal injection; format: in vivo, Kunming mice
# Method: as §3
# (§4) The maximum suspended dose (900 mg/kg) of Oxy-Di-OA was prepared in bean oil solution. One group of mice was injected intraperitoneally with bean oil as a normal control. Then the other five groups of mice were given intraperitoneal injections of Oxy-Di-OA in doses of 178, 422, 600, 750, and 900 mg/kg, respectively. The mice were observed continuously for 1 h after such treatment and then intermittently for 4 h, and thereafter over a period of 24 h. The mice were further observed for up to seven days following treatment for any situations of poisoning and deaths and the latency of death. Some abnormal behaviors were recorded.
# (§5) The acute toxicity assay via intraperitoneal injection was evaluated by LD50 and 95% CIs which were calculated by Käber assessment.
# [9] = Acute toxicity assay via intraperitoneal injection; format: in vivo, Kunming mice; conditions: male, Kunming, mouse, in vivo, ip, mice, Käber assessment
# Method: as §3, §4, §5
# [10] = tested on: HBV (Hepatitis B Virus); design: method as in PMID 27023498; conditions: previous studies; cited from earlier work
# [11] = bifendate 10.5 mg/kg once per day
# [12] = SD, rat, plasma, single oral dose 500 mg/kg, n = 6
# [13] = single oral dose 500 mg/kg, n = 6
# [14] = high-dose group 28 mg/kg once per day
# [15] = low-dose group 14 mg/kg once per day
# [16] = dose 28 mg/kg (high dose), 28 mg/kg
structure (smiles),measurement,setting,value
"COC(=O)c1cc(OC)c2c(c1-c1c(C(=O)OC)cc(OC)c3c1OCO3)OCO2 [Bifendate, bifendate, reference compound]",histological examination of rat livers (H&E),[1]; [11],notable alleviation in abnormal areas
same,Liver Index,[2]; dose 10.5 mg/kg,3.57 ± 0.34 %
same,Spleen Index,[2]; dose 10.5 mg/kg,0.24 ± 0.04 %
same,ALT,[3]; dose 10.5 mg/kg,54.54 ± 21.40 U/L
same,AST,[3]; dose 10.5 mg/kg,122.56 ± 39.18 U/L
same,expression of TGF-β1 (immunohistochemical staining),[4]; [11],a low expression of TGF-β1
"CC1(C)CCC2(C(=O)O)CC[C@]3(C)C(=CC=C4[C@@]5(C)CCC(=O)C(C)(C)[C@@H]5CC[C@]43C)C2C1 (stereo partly shown) [Oxy-Di-OA, 3-oxours-oleana-9(11), 12-dien-28-oic acid]",LD50 at 7 days,[5],> 2000 mg/kg
same,AUC(0-t),"[6]; SD, rat, plasma, po, 500 mg/kg, single oral dose 500 mg/kg, n = 6, read-out: AUClast (area under the concentration-time curve from t = 0 to the last time)",88020 ± 660 ng·h/mL
same,Cmax,[6]; [12],8180 ± 660 ng/mL
same,MRT,[6]; [12],9.48 ± 0.48 h
same,Tmax,"[6]; SD, rat, plasma, single oral dose 500 mg/kg, n = 6, read-out: Tmax (time to reach peak concentration)",10 ± 2.19 h
same,half-life,"[6]; SD, rat, plasma, single oral dose 500 mg/kg, n = 6, read-out: t1/2 (elimination half-life) (converted)",2.19 ± 0.71 h
same,CL,[6]; [13],92.9307 ± 16.544 mL/min/kg
same,Vz,[6]; [13],"18,290.17 ± 9453.59 mL/kg"
same,AUClast (area under the concentration-time curve from t = 0 to the last time),"[6]; single oral dose 500 mg/kg, n = 6, 500 mg/kg",90210 ± 15680 ng·h/mL
same,elimination half-life compared with oleanolic acid,[6]; oleanolic acid data ref 27,"longer elimination half-life than its parent compound, oleanolic acid"
same,stability in plasma biomatrix and processed samples,"[7]; freezing and thawing cycles, room temperature 24 h",stable
same,concentration relative to the initial concentration,"[7]; methanol solutions, room temperature for 24 h",97.46% to 100.17%
same,histological examination of rat livers (H&E),[1]; [14],marked regression and alleviation in the abnormal areas
same,histological examination of rat livers (H&E),[1]; [15],moderate regression of morphological changes
same,Liver Index,[2]; dose 14 mg/kg,3.46 ± 0.38 %
same,Spleen Index,[2]; dose 14 mg/kg,0.24 ± 0.06 %
same,Liver Index,[2]; [16],"3.15% ± 0.36% and 3.15 ± 0.36 *^,# %"
same,Spleen Index,[2]; [16],0.26% ± 0.05% and 0.26 ± 0.05 %
same,ALT,[3]; dose 14 mg/kg,77.58 ± 39.58 U/L
same,AST,[3]; dose 14 mg/kg,122.00 ± 52.19 U/L
same,ALT,[3]; dose 28 mg/kg,67.06 ± 51.59 U/L
same,AST,[3]; dose 28 mg/kg,141.89 ± 71.57 U/L
same,dose harmless for further in vivo study,[8],600 mg/kg
same,Death Rate,[8]; 178 mg/kg,0%
same,Death Rate,[8]; 422 mg/kg,0%
same,Death Rate,[8]; 600 mg/kg,0%
same,Death Rate,[8]; 750 mg/kg,67%
same,Death Rate,[8]; 900 mg/kg,83%
same,symptoms observed,"[8]; high dose, one hour after the experiment",slow movement and a decrease in aggressiveness
same,LD50 at 7 days,[9]; read-out: 95% CIs of LD50,640 to 799 mg/kg
same,LD50 at 7 days,[9]; read-out: LD50,715 mg/kg
same,expression of TGF-β1 (immunohistochemical staining),[4]; [14],a lower expression of TGF-β1 compared to model group
same,expression of TGF-β1 (immunohistochemical staining),[4]; [15],a lower expression of TGF-β1 compared to model group
same,anti-HBV activity IC50,[10],3.13 µg/mL
same,"inhibition of the rebound of the viral replication rate, compared with lamivudine",[10],superior to the positive drug (Lamivudine)
same,inhibition rate of the secretion of HBsAg,[10],90.52% ± 1.78%
same,reduction rate of the secretion of HBeAg,[10],42.31% ± 3.53%
